Measured values: patent US20230277525A1, “CONJUGATE OF FUNCTIONAL DRUG AND TOLL-LIKE RECEPTOR 7 OR 8 AGONIST OF WHICH ACTIVE SITE IS TEMPORARILY INACTIVATED AND USE THEREOF” (priority 2020, published 2023)

B1: complex of the OVA protein antigen and resiquimod, having a bond cleaved by cathepsin-B: OVA protein antigen linked to resiquimod active site via Mal-Val-Cit-PAB linker cleaved by cathepsin-B (conjugate, UniProt P01012 2-386, looked up)
Ovalbumin: GSIGAASMEFCFDVFKELKVHHANENIFYCPIAIMSALAMVYLGAKDSTRTQINKVVRFDKLPGFGDSIEAQCGTSVNVHSSLRDILNQITKPNDVYSFSLASRLYAEERYPILPEYLQCVKELYRGGLEPINFQTAADQARELINSWVESQTNGIIRNVLQPSSVDSQTAMVLVNAIVFKGLWEKAFKDEDTQAMPFRVTEQESKPVQMMYQIGLFRVASMASEKMKILELPFASGTMSMLVLLPDEVSGLEQLESIINFEKLTEWTSSNVMEERKIKVYLPRMKMEEKYNLTSVLMAMGITDVFSSSANLSGISSAESLKISQAVHAAHAEINEAGREVVGSAEAGVDAASVSEEFRADHPFLFCIKHIATNAVLFFGRCVSP
modifications: resiquimod via Mal-Val-Cit-PAB linker

Legend:
[1] = tested on: IL-6; assay: blood inflammatory cytokine (IL-6) level after intravenous injection, AAC-001 study; type: in vivo; conditions: mouse, blood collected at 0, 1, 2 and 4 hours, ELISA, FIG. 18
Procedure: To confirm the effect of the antibody-resiquimod complex (AAC-001) synthesized in the same manner as in Example 14.1 on the secretion of inflammatory cytokine in blood, after intravenously injecting the AAC-001 complex or resiquimod into a mouse, blood samples were collected at 0, 1, 2, and 4 hours. The collected blood sample was centrifuged at 10,000×g for 20 minutes to separate serum, and the concentration of IL-6, which is a representative inflammatory cytokine, present in serum was measured using the Invitrogen mouse IL-6 ELISA kit.

[2] = tested on: IL-6; assay: blood inflammatory cytokine (IL-6) level after intravenous injection, AAC-002 study; type: in vivo; conditions: mouse, two hours after intravenous injection, ELISA; FIG. 20
Procedure: To confirm the effect of the antibody-resiquimod complex (AAC-002) synthesized in the same manner as in Example 15.1 on the secretion of an inflammatory cytokine in blood, two hours after the AAC-002 complex (conjugated TLR7/8a-Blocked active site) was intravenously injected into a mouse, blood samples were collected. The collected blood sample was centrifuged at 10,000×g for 20 minutes to separate serum, and the concentration of IL-6, which is a representative inflammatory cytokine, present in serum was measured using the Invitrogen mouse IL-6 ELISA kit. As controls, a phosphate-buffered saline-injected group (Blank), a resiquimod only-injected group (Bare TLR7/8a-Uncomplexd), and a group into which an antibody-resiquimod complex in which the antibody binds to a site other than the active site, is injected (conjugated TLR7/8a-Live active site) were used for comparison.

[3] = size of complex in aqueous solution by spectroscopy; type: physicochemical; conditions: in an aqueous solution; FIG. 21
Procedure: To synthesize a complex of a protein antigen, which is a type of sulfhydryl group-containing protein-based drug, and resiquimod, having a bond cleaved by cathepsin-B, first, resiquimod to which a linker binds to its active site was synthesized. In further detail, resiquimod (10 mg) and Mal-Val-Cit-PAB-PNP (47.2 mg) were added to 2 mL of N,N-dimethylformamide (DMF), and then dissolved. Afterward, N,N-diisopropylethylamine (DIPEA; 6.7 μL) and 1-hydroxybenzotriazole hydrate (1-HOBt; 315 μg) were added. Then, a mixture was prepared by stirring at room temperature for 16 hours. The OVA protein antigen (10 mg) was added to the prepared mixture and reacted, thereby preparing a complex, and then the resulting complex was purified by thin-layer chromatography, thereby preparing an OVA protein antigen-resiquimod complex having a bond cleaved by cathepsin-B. Then, the prepared complex was subjected to spectroscopy to confirm its size.

| Molecule | inflammatory cytokine (IL-6) level in serum [1] | inflammatory cytokine (IL-6) level in serum [2] | nanoparticle size [3] |
| --- | --- | --- | --- |
| CCOCc1nc2c(N)nc3ccccc3c2n1CC(C)(C)O [resiquimod] | promotes the secretion of inflammatory cytokines and induces a cytokine storm | remarkably increasing an inflammatory cytokine level in blood | – |
| B1 | – | – | approximately 99.7 nm |
